Paper PMC6881481, “Integrative Multi-Kinase Approach for the Identification of Potent Antiplasmodial Hits” (Frontiers in Chemistry, 2019)
Where two headings read alike, the source gives them in different places.

Columns and labels:
[1] = test system: P. falciparum 3D7 (sensitive) strain, asexual blood stage; experiment: Plasmodium growth inhibition by SYBR Green I, 3D7 strain; type: cell-based
Description: (§1) Parasite cultures (3D7 and Dd2 strains) were maintained in O^+ human erythrocytes in RPMI 1640 medium supplemented with 0.05 mg/mL gentamycin, 38.4 mM HEPES, 0.2% sodium bicarbonate, and 10% O^+ human serum as described before (Trager and Jensen, [1976]). To achieve a synchronic culture in the ring stage, two consecutive treatments at 48 h intervals with a 5% solution of D-sorbitol were done (Lambros and Vanderberg, [1979]).
(§2) Synchronized ring-stage (> 90%) infected erythrocytes were dispensed in duplicate into 96-well plates (0.5% parasitemia, 1% hematocrit) and incubated in dose response format with test compounds for 72 h. Chloroquine was used as an antimalarial control and uninfected erythrocytes as negative control. Then, in vitro susceptibility of parasite to tested drug was measured by SYBR Green (Hartwig et al., [2013]). Following incubation, the plates were frozen and thawed, and 100 μL of the culture were transferred to a new black 96-well plate containing 100 μL of lysis buffer (20 mM Tris, 5 mM EDTA, 0.008% wt/vol saponin, 0.08% vol/vol Triton X-100, and 0.4 μL/mL of SYBR Green). After 1 h, the fluorescence was measured at 490 nm excitation and 540 nm emission (CLARIOstar, Labtech BMG). […] The EC50 was calculated by plotting the Log doses vs. Inhibition (expressed as a percentage relative to the control) in Prism 6 (GraphPad Software Inc.). Each test was performed at least three independent experiments.

[2] = test system: P. falciparum Dd2 (multi-drug-resistant) strain, asexual blood stage; experiment: Plasmodium growth inhibition by SYBR Green I, Dd2 strain; type: cell-based; settings: read-out: EC50 Dd2
Description: as §1, §2

[3] = test system: P. berghei Ookluc line ookinete formation; experiment: Inhibition of P. berghei sexual stage progression (ookinete conversion, nLuc); type: cell-based; settings: Plasmodium berghei, 24 h at 21°C, mean ± SD
Description: Balb/c mice were infected intraperitoneally with the P. berghei Ookluc line (Calit et al., [2018]). Four to five days after infection, the infected blood was collected by cardiac puncture and 4 μL were seeded to a volume of 80 μL of ookinete medium (Blagborough et al., [2013]), at 21°C, containing 10 μM of compounds or DMSO vehicle control. After 24h incubation at 21°C, the nLuc substrate (Nano-Glo, Promega) was added to each well 1:1 (v:v) and incubated for 5 min at 37°C. The luciferase activity was measured using a plate luminometer SpectraMax i3; Molecular Devices and the % of conversion inhibition were calculated relative to the luciferase activity in the control assays. This assay was approved by the Ethics Committee (protocol number 132/2014-CEUA) of the Institute of Biomedical Sciences—University of São Paulo.

P. falciparum CDPK1 = test system: P. falciparum CDPK1; design: method as in ref Crowther et al., 2016; National Center for Biotechnology Information, 2016a; settings: query of shape-based model, ref Crowther et al., 2016, National Center for Biotechnology Information, 2016a; cited from earlier work
P. falciparum CDPK4 = test system: P. falciparum CDPK4; design: method as in ref Crowther et al., 2016; National Center for Biotechnology Information, 2016b; settings: query of shape-based model, ref Crowther et al., 2016, National Center for Biotechnology Information, 2016b; cited from earlier work
P. falciparum PK6 = test system: P. falciparum PK6; design: method as in ref Crowther et al., 2016; National Center for Biotechnology Information, 2016c; settings: query of shape-based model, ref Crowther et al., 2016, National Center for Biotechnology Information, 2016c; cited from earlier work
[4] = Cytotoxicity assay (MTT reduction), COS7 cells; type: cell-based, monkey; settings: monkey, COS7 cells (fibroblast-like, monkey kidney); COS7 cells, 72 h, mean ± SD
Description: (§3) The cytotoxicity was evaluated using two different lineages of mammalian cells: fibroblast-like cell lines derived from monkey kidney tissue (COS7 cells) and human hepatoma cell line (HEPG2). The cells were grown in 75 cm^2 flasks containing DMEM medium supplemented with 10% fetal bovine serum and 0.05 mg/mL gentamicin under a 5% CO2 atmosphere at 37°C. After harvest of cells, 100 μL aliquots were distributed in 96-well plates (1 x 10^4 cells per well) and incubated until adhesion (~12 h). The compounds at various concentrations (100−0.048 μM) were placed in the wells in duplicate and incubated for 72 h. The cell viability analysis were done by the MMT reduction method (3-[4,5-dimethyl-thiazol-2-yl]-2,5-diphenyltetrazolium […]), after the incubation period (Mosmann, [1983]). The optical density was determined at 570 nm (CLARIOstar, Labtech BMG) and the 50% cytotoxicity concentrations (CC50) were expressed as the percent viability relative to the control (untreated cells). The selectivity index of the compounds was determined through the ratio of the CC50 of both cytotoxicity results (COS7 and HEPG2 cells) and EC50 3D7, separately. Experiments were performed at least three times.

COS7 cells = experiment: Cytotoxicity assay (MTT reduction), COS7 cells; type: cell-based, monkey; settings: for SI* (selectivity index between CC50 COS7 and EC50 3D7 strain): CC50 COS7 / EC50 3D7; for selectivity indices: mammalian cells vs 3D7 (abstract)
Description: as §3

[5] = Cytotoxicity assay (MTT reduction), HEPG2 cells; type: cell-based, human; settings: human, HEPG2 cells (human hepatoma); HEPG2 cells, 72 h, mean ± SD
Description: as §3

HEPG2 cells = experiment: Cytotoxicity assay (MTT reduction), HEPG2 cells; type: cell-based, human; settings: CC50 HEPG2 / EC50 3D7
Description: as §3

[6] = 3D7 strain, 72 h, mean ± SD of three independent assays, read-out: EC50 3D7
[7] = 3D7, both sensitive and multi-drug resistant P. falciparum strains (abstract), read-out: EC50 (antiplasmodial activity)
[8] = 3D7 / DD2, both 3D7 and Dd2 strains, summary bound, read-out: EC50 (3D7 and Dd2 strains)
[9] = Dd2 strain, 72 h, mean ± SD of three independent assays

With `CCN(CC)CCCC(C)Nc1ccnc2cc(Cl)ccc12` (stereo not drawn) [Chloroquine, reference compound] as the compound, how does the EC50 ([1]; 3D7, 72 h, read-out: EC50 3D7) read?
Its EC50 is 0.02 ± 0.01 µM.

What about the EC50 ([2]; DD2, 72 h) of the same compound?
Its EC50 is 0.15 ± 0.04 µM.

With `Cc1ccc(-c2nc(NCc3cnc(C)cn3)ncc2-c2ccc(N)nc2)cc1` [LabMol-177] as the compound, how does the EC50 [1, 6] read?
The EC50 was > 5 µM.

And the inhibition at 10 µM [3]?
The inhibition at 10 µM was 8.76 ± 15.2%.

Which IC50 (P. falciparum CDPK1) does the source give for `CCn1c(-c2nonc2N)nc2c(-c3cccc(NC(=O)Nc4cccc(C(F)(F)F)c4)c3)ncc(OCCCN)c21` [SID 307073749] here?
The IC50 was 0.015 µM.

With `Cc1[nH]c(/C=C2\C(=O)Nc3ccc(S(=O)(=O)Cc4c(Cl)cccc4Cl)cc32)c(C)c1C(=O)N1CCC[C@@H]1CN1CCCC1` [SID 307068815] as the compound, how does the IC50 (P. falciparum CDPK4) read?
Its IC50 is 0.021 µM.

With `CC(C)(CN)c1nc(-c2ccc(Cl)c(O)c2)c(-c2ccnc(N)n2)[nH]1` [SID 307078537] as the compound, how does the IC50 (P. falciparum CDPK1) read?
Its IC50 is 0.007 µM.

For `CNC(=O)c1ccccc1Nc1nc(Nc2ccc(N3CCOCC3)cc2)ncc1Cl` [SID 307071719], which IC50 (P. falciparum PK6) is on record?
Its IC50 is 0.042 µM.

For `CC(O)c1cccc(Nc2nc(NCCO)c3ccccc3n2)c1` (stereo not drawn) [LabMol-171], which EC50 [1, 7] is on record?
Its EC50 is ≤ 0.7 µM.

What about the EC50 [1, 8] of the same compound?
Its EC50 is < 1 µM.

And the EC50 [1, 6]?
Its EC50 is 0.35 ± 0.08 µM.

And the EC50 [2, 9]?
Its EC50 is 0.7 ± 0.41 µM.

What about the CC50 at 72 h [4] of the same compound?
The CC50 at 72 h was 48.4 ± 14 µM.

What about the “SI* (selectivity index between CC50 COS7 and EC50 3D7 strain)” value (COS7 cells) of the same compound?
The value was 138.26.

And the selectivity indices (COS7 cells)?
The selectivity indices was > 15 folds.

And the CC50 at 72 h [5]?
The CC50 at 72 h was 19.3 ± 3.69 µM.

What about the “SI** (selectivity index between CC50 HEPG2 and EC50 3D7 strain)” value (HEPG2 cells) of the same compound?
The value was 55.17.

What about the inhibition at 10 µM [3] of the same compound?
Its inhibition at 10 µM is 70 ± 22.2%.

With `c1ccc2c(NCC3CCCO3)nc(Nc3ccc4c(c3)OCO4)nc2c1` (stereo not drawn) [LabMol-181] as the compound, how does the EC50 [1, 7] read?
The EC50 was ≤ 0.7 µM.

What about the EC50 [1, 8] of the same compound?
Its EC50 is < 1 µM.

And the EC50 [1, 6]?
Its EC50 is 0.39 ± 0.06 µM.

What about the EC50 [2, 9] of the same compound?
The EC50 was 0.4 ± 0.1 µM.

And the CC50 at 72 h [4]?
Its CC50 at 72 h is 18.3 ± 1.92 µM.

What about the “SI* (selectivity index between CC50 COS7 and EC50 3D7 strain)” value (COS7 cells) of the same compound?
The value was 46.90.

What about the selectivity indices (COS7 cells) of the same compound?
Its selectivity indices is > 15 folds.

And the CC50 at 72 h [5]?
Its CC50 at 72 h is 6.13 ± 2.05 µM.

What about the “SI** (selectivity index between CC50 HEPG2 and EC50 3D7 strain)” value (HEPG2 cells) of the same compound?
The value was 15.72.

What about the inhibition at 10 µM [3] of the same compound?
The inhibition at 10 µM was 51.8 ± 23.2%.

Which EC50 [1, 6] does the source give for `Cc1cc(NCCCN2CCN(C)CC2)nc(-c2ccccc2O)n1` [LabMol-174] here?
Its EC50 is > 5 µM.

And the inhibition at 10 µM [3]?
The inhibition at 10 µM was 21.4 ± 36.7%.

Which results are given for `CN1CCN(CCC2CCCCN2Cc2ccnc3ccccc23)CC1` (stereo not drawn) [LabMol-173]?
EC50 [1, 6]: > 5 µM; inhibition at 10 µM [3]: 0%

With `O=C(NCCCN1CCCCC1)c1ccc(Nc2nccc(Nc3ccc(Oc4ccccc4)cc3)n2)cc1` [SID 307076176] as the compound, how does the IC50 (P. falciparum CDPK1) read?
The IC50 was 0.094 µM.

For `COc1ccc(Nc2nc(Nc3ccc([N+](=O)[O-])cc3)nc(OC)n2)cc1` [LabMol-169], which EC50 [1, 6] is on record?
Its EC50 is 8.77 ± 2.2 µM.

What about the EC50 [2, 9] of the same compound?
Its EC50 is 3.4 ± 1.68 µM.

What about the CC50 at 72 h [4] of the same compound?
Its CC50 at 72 h is 44.6 ± 3.73 µM.

And the “SI* (selectivity index between CC50 COS7 and EC50 3D7 strain)” value (COS7 cells)?
The value was 5.09.

And the CC50 at 72 h [5]?
The CC50 at 72 h was 19.9 ± 2.26 µM.

What about the “SI** (selectivity index between CC50 HEPG2 and EC50 3D7 strain)” value (HEPG2 cells) of the same compound?
The value was 2.27.

And the inhibition at 10 µM [3]?
The inhibition at 10 µM was 8.58 ± 7.62%.

For `O=C(NCCO)c1cccc(Nc2nc(-c3ccccc3)c3cc(Cl)ccc3n2)c1` [LabMol-175], which EC50 [1, 6] is on record?
The EC50 was > 5 µM.

And the inhibition at 10 µM [3]?
Its inhibition at 10 µM is 12.9 ± 22.3%.

For `CC(Nc1nc(N2CCNCC2)nc2ccccc12)c1ccccc1` (stereo not drawn) [LabMol-176], which EC50 [1, 6] is on record?
Its EC50 is 1.15 ± 0.26 µM.

What about the EC50 [2, 9] of the same compound?
Its EC50 is 1.71 ± 0.4 µM.

And the CC50 at 72 h [4]?
The CC50 at 72 h was 34.9 ± 4.06 µM.

What about the “SI* (selectivity index between CC50 COS7 and EC50 3D7 strain)” value (COS7 cells) of the same compound?
The value was 30.33.

What about the CC50 at 72 h [5] of the same compound?
Its CC50 at 72 h is 5.63 ± 1.51 µM.

And the “SI** (selectivity index between CC50 HEPG2 and EC50 3D7 strain)” value (HEPG2 cells)?
The value was 4.90.

And the inhibition at 10 µM [3]?
Its inhibition at 10 µM is 20.5 ± 19.4%.

What does the source list for `CC(O)c1cccc(Nc2nc(NCc3ccco3)c3ccccc3n2)c1` (stereo not drawn) [LabMol-172]?
EC50 [1, 7]: ≤ 0.7 µM; EC50 [1, 8]: < 1 µM; EC50 [1, 6]: 0.43 ± 0.08 µM; EC50 [2, 9]: 0.48 ± 0.17 µM; CC50 at 72 h [4]: 12.1 ± 1.44 µM; SI* (selectivity index between CC50 COS7 and EC50 3D7 strain) (COS7 cells): 28.16; selectivity indices (COS7 cells): > 15 folds; CC50 at 72 h [5]: 10.2 ± 5.53 µM; SI** (selectivity index between CC50 HEPG2 and EC50 3D7 strain) (HEPG2 cells): 23.74; inhibition at 10 µM [3]: 8.59 ± 13%

For `COc1ccc(Nc2nc(C)c(N)c(Nc3ccc(OC)cc3)n2)cc1` [LabMol-170], which EC50 [1, 6] is on record?
Its EC50 is 1.14 ± 0.2 µM.

What about the EC50 [2, 9] of the same compound?
The EC50 was 2.02 ± 0.36 µM.

And the CC50 at 72 h [4]?
The CC50 at 72 h was 7.59 ± 4.09 µM.

What about the “SI* (selectivity index between CC50 COS7 and EC50 3D7 strain)” value (COS7 cells) of the same compound?
Its value is 6.66.

What about the CC50 at 72 h [5] of the same compound?
Its CC50 at 72 h is 5.43 ± 2.39 µM.

And the “SI** (selectivity index between CC50 HEPG2 and EC50 3D7 strain)” value (HEPG2 cells)?
Its value is 4.76.

And the inhibition at 10 µM [3]?
Its inhibition at 10 µM is 11.2 ± 19.5%.
